# Test results taken from a melting point compilation (Tetko et al.; mined from patent text by program, amines drawn as free bases though some values may be those of a salt).
row,SMILES,melting point
1,Cc1cccc(-c2[nH]c(C(C)C)nc2-c2cccc(-c3ccc(C(=O)NC4CCOCC4)cc3)c2)n1,140 °C
2,COc1ccc(-c2ccc3c(C(=O)N(C)C)c(-c4ccccc4)ccc3c2)cc1,171 to 173 °C
3,O=C(Nc1c(C(O)(C(F)(F)F)C(F)(F)F)ccc2ccccc12)C1CC1,163 to 165 °C
4,CC1CCCN1c1ccc(C#N)c2occc12 (centres undefined),82 to 83 °C
5,Cn1cnc(CNC(=O)c2ccnc(N3CCN(Cc4ccc(F)cc4)C3=O)c2)c1,174 to 176 °C
6,CCOCc1cc2ccccc2oc1=Nc1ccc(Br)cc1,73 to 74 °C
7,O=C(NCc1cc(Cl)cc(Cl)c1)c1ccnc(NC(=O)c2ccccc2)c1,248 to 251 °C
8,CCOC(=O)COc1cc(OCC=C(C)C)ccc1C(=O)C=Cc1ccc(C(C)(C)C)cc1,78 to 79 °C
9,CN(C)n1c(Br)nn(C(=O)Oc2ccccc2)c1=O,136 °C
10,Fc1cccc(F)c1CCNC(=S)Nc1ccccn1,157 to 160 °C
11,CC(=O)Nc1sccc1C(=O)c1ccccc1F,144 °C
12,COC(=O)c1ccc(CN(Cc2cc(Br)ccc2OCc2ccccc2)c2ccc(C(=O)OC(C)(C)C)cc2)cc1,154 to 155 °C
13,CC1NS(=O)(=O)c2sccc21 (centres undefined),79 to 81 °C
14,COc1ccc(Cl)c(OC)c1C(=O)O,132 to 133 °C
15,O=c1[nH]c(=S)n2c3c1cnn3C(c1ccccc1)=CC2,289 to 291 °C
16,CCCCCc1ccc(C(=O)Nc2ccc3cc(CN4CCCC4)cnc3c2C)cc1,121 °C
17,COc1ccccc1N1CCN(S(=O)(=O)c2ccc([N+](=O)[O-])cc2)CC1,202 to 204 °C
18,Clc1cc(Cl)c(Cl)nn1,57 to 58 °C
19,CC(=O)Nc1ccc([N+](=O)[O-])c(C)c1C(=O)O,190 to 191 °C
20,NC(=O)N1C(=O)C(C(=O)c2ccc(Cl)s2)c2cc(Cl)ccc21 (centres undefined),220 to 222 °C
21,CCn1cc(C(=O)O)c(=O)c2cc(Cl)c(N3CCOCC3)cc21,266 °C
22,CC1(C)C(=O)C(C)(C)c2cc3[nH]c(S)nc3cc21,> 300 °C
23,CNC(=O)N(C)C1=NN(C(C)=O)C(C)(C)S1,151 to 154 °C

row,SMILES,melting point
1,Cc1cccc(CCC(C)O)c1NC(=O)CC1c2ccccc2Oc2ccccc21 (centres undefined),167 to 168 °C
2,Cc1ccc2[nH]c3c(cc(-c4ccccc4Nc4ccccc4)c(=O)n3C)c2c1,188 to 190 °C
3,c1ccc(C2CSC(c3ccccc3)N2)cc1 (mixture of isomers),120 °C
4,Cc1cccc(-c2nnnn2C)c1S(N)(=O)=O,140 to 161 °C
5,Oc1cc2cc(C3CCCCC3)sc2c(Cl)c1Cl,59 to 60 °C
6,CCOC(=O)c1cnc2n(c1=O)-c1ccccc1N(C(=O)OCC)C2,140 to 142 °C
7,CCOC(=O)c1c2n(c3cc(N4CCN(C(C)=O)CC4)c(Cl)cc3c1=O)CS2,266 to 268 °C
8,CCCCCCCCCCCCSc1cc(SCCCCCCCCCCCC)c([N+](=O)[O-])c(C(=O)O)c1,74 to 77 °C
9,Cc1nc(C(N)=O)c2n1-c1ccc(Cl)cc1C(c1ccccc1)=NC2,335 to 340 °C
10,CC(C)Cc1ccc(C(C)C(=N)NO)cc1 (centres undefined),75 to 78 °C
11,O=C1C[C@@H]2[C@@H](CC[C@H](CCc3ccccc3)OC3CCCCO3)[C@H](OC(=O)c3ccc(-c4ccccc4)cc3)C[C@@H]2O1 (some centres undefined),103 to 105 °C
12,O=S1(=O)CCN2C=CC=C(c3ccc(Oc4ccc(C(F)(F)F)cc4)cc3)C2=N1,253 to 255 °C
13,CNC(=O)c1cc(NC(=O)c2ccc(C)c(Nc3nccc(-c4cccnc4)n3)c2)cc(N2CCOCC2)c1,153 to 156 °C
14,N#CCCCCCC(=NO)c1ccc(Cl)cc1,58 to 59 °C
15,COc1ccc(CCNC(=O)CNc2cccc(C(N)=O)c2)cc1OC,133 to 135 °C
16,Cc1cnc(Oc2cccc(C(F)(F)F)c2)c(C(=O)Nc2ccc(F)cc2F)c1,133 to 135 °C
17,COc1cc2nc(-c3cc(C)c(OCC(N)=O)c(C)c3)[nH]c(=O)c2cc1OC,354 to 356 °C
18,O=C(c1ccccc1)c1ccc(O)c(O)c1[N+](=O)[O-],153 to 155 °C
19,N#CSCC1CC(=O)N(c2ccc(F)cc2)C1=O (centres undefined),88 °C
20,CCCc1c(OCCCOc2ccc(NC(=O)c3nnn[nH]3)cc2)ccc(C(C)=O)c1O,200 to 202 °C
21,CNc1nc(-c2cccc(-c3cncc(OC)c3)c2)c2cc(OC)c(OC)cc2n1,225 to 227 °C
22,COC(=O)CC(=O)c1cc(F)c(Cl)cc1Cl,77 to 79 °C
23,NC(=O)Nc1ccccc1S,151 to 153 °C

row,SMILES,melting point
1,Cc1cc(C)cc(Nc2nnc(Cc3ccncc3)c3ccccc23)c1,174 to 175 °C
2,O=C(O)CCc1oc(N2CCN(c3ccccc3)CC2)nc1-c1ccc(Cl)cc1,177 to 178 °C
3,NC(=O)c1ccc([N+](=O)[O-])c(C(N)=O)c1,287 to 289 °C
4,COC(=O)CNC(=O)CC(O)CBr (centres undefined),60 to 61 °C
5,Cc1ccc(C=NC2CCN(c3cc4c(cc3F)c(=O)c(C(=O)O)cn4-c3ccc(F)cc3)C2)cc1 (centres undefined),233 to 234 °C
6,CCNC(=O)c1ccc(N2CCN(Cc3cc(C)c4c(c3)NC(=O)C(C)O4)CC2)c(Cl)c1 (centres undefined),227 to 228 °C
7,CC(C)c1ccccc1N1CCS/C1=N/N=C\c1ccc(-c2ncn(-c3ccc(OC(F)(F)F)cc3)n2)cc1,193 to 196 °C
8,O=C(O)c1c(-c2cccc3ccccc23)c2ccccc2n1Cc1cc2c(cc1Cl)OCO2,241 to 242 °C
9,CS(=O)c1nsc(Cl)n1 (centres undefined),72 °C
10,C=Cc1cccc2[nH]c(C(=O)O)cc(=O)c12,265 to 266 °C
11,Nc1ccc(-c2nnn(-c3ccc(C(F)(F)F)cc3F)c2N)cc1,164 to 165 °C
12,Cc1cc(O)c(SCc2cccc(F)c2)c(=O)o1,124 °C
13,COc1ccc(-n2cnc3ccc(-c4nnc(SC)o4)cc32)cc1,187 to 188 °C
14,COc1ccc(-n2nc(Br)cc2-c2ccc(SC)cc2)cc1,144 to 145 °C
15,O=C1c2ccccc2-c2c1c1ccccc1c(=O)n2CCCCCO,144 to 146 °C
16,CC(C)(N)c1ccc(-c2nc(Nc3cccc(F)c3)ncc2C#N)cc1,209 °C
17,O=Cc1cc(OCc2ccccc2)ccc1O,94 to 96 °C
18,COc1ccccc1Oc1c(NS(=O)(=O)c2ccc(C(C)(C)C)cc2)nc(-c2ncccn2)nc1OCCOc1ccc(C(C)O)cc1 (centres undefined),191 to 194 °C
19,Oc1ccc2c(c1Cl)Sc1ccccc1N2,110 °C
20,Cn1c(=N)sc2ccccc21,122 °C
21,Cc1oc(-c2ccccc2)nc1CCOc1ccc(C[C@@H](C(=O)O)N2CCN(S(=O)(=O)c3ccccc3F)CC2)cc1,170 to 172 °C
22,Cc1noc(NS(=O)(=O)c2ccc(C(F)(F)F)cc2)c1Br,155 to 158 °C

# The remaining lines, values ahead:
row,melting point,SMILES
1,144 to 148 °C,CN(c1nc2ccccc2c(=O)o1)c1ccccc1I
2,139 to 140 °C,CCOC(=O)c1ncc2[nH]c3cccc(CO)c3c2c1COC
3,207 to 209 °C,CC1(C)SC(c2ccc(O)cc2)NC1C(=O)O (centres undefined)
4,115 to 118 °C,CC(C)c1ccccc1N1/C(=N\N=C/c2ccc(-c3ncn(-c4ccc(OC(F)(F)F)cc4)n3)cc2)SCC1(O)c1ccccc1C(F)(F)F (centres undefined)
5,129 to 130 °C,CC(=O)OC1CCC2(C)C(CCC3=C4C(=O)CC(C(C)CCC=C(C)C)C4(C)CCC32)C1 (centres undefined)
6,152 to 154 °C,CC(C)NC(=O)c1ccc([N+](=O)[O-])cc1
7,213 to 215 °C,CNC1([C@@H]2CCN(c3ccc4c(=O)c(C(=O)O)cn([C@@H]5C[C@@H]5F)c4c3OC)C2)CC1
8,128 °C,Cc1cc(Cl)ccc1C(=O)CN(C(=O)C(C)Cl)c1ccccc1 (centres undefined)
9,> 250 °C,CC(=O)NCC1CN(c2ccc3c(c2)OCC2CN(C(=O)c4cc5ccccc5[nH]4)CCN32)C(=O)O1 (centres undefined)
10,155 to 160 °C,O=C(O)Cc1ccc(NC(=O)C(CCc2ccccc2)NS(=O)(=O)c2ccc(Br)cc2)cc1 (racemic)
11,115 to 117 °C,O=C(N[C@@H](Cc1ccc(C(=O)c2ccccc2)cc1)C(=O)O)OCC1c2ccccc2-c2ccccc21
12,220 to 226 °C,CC(C)(C)NC(=O)[C@@H]1CCCC[C@H]1C[C@@H](O)[C@H](Cc1ccccc1)NC(=O)[C@H](CC(N)=O)NC(=O)c1cc(Cl)cc(Cl)c1
13,65 °C,COC(=O)c1ccc(C(O)c2c(C)c3cc(C(F)(F)F)ccc3n2S(=O)(=O)c2cccc(C(C)(C)C)c2)cc1 (centres undefined)
14,273 to 275 °C,Nc1nc2c(ncn2CCC(CO)CCl)c(=O)[nH]1 (centres undefined)
15,129 to 131 °C,Cc1c(C(F)(F)F)n(C)c(=O)n(-c2ccc(Br)cc2F)c1=O
16,160 to 161 °C,CNc1c2c(nc3ccccc13)CCCC2O (centres undefined)

row,melting point,SMILES
1,114 to 116 °C,O=C(Oc1ccc(CS(=O)(=O)Cc2ccc(OC(=O)C3CC3)c([N+](=O)[O-])c2)cc1[N+](=O)[O-])C1CC1
2,158 to 160 °C,CC(C)Nc1cccnc1N1CCN(C(=O)c2ccc(C(=O)N3CCN(C)CC3)cc2)CC1
3,113 to 114 °C,CCOC(=O)C1=C(Cl)N=C(C)N(C(=O)OC)C1c1cccc([N+](=O)[O-])c1 (centres undefined)
4,134 to 137 °C,CN1CCCC1=C1C(=O)N(c2ccccc2)c2cc(Cl)ccc21
5,142 to 150 °C,CN1C(=O)CC[C@]2(C)c3ccc(-c4ccccc4F)cc3CC[C@@H]12
6,78 to 79 °C,Nc1nc(Cl)cc(NCC2CC2(Cl)Cl)n1 (centres undefined)
7,127 °C,C=CCOc1ccnc2c([N+](=O)[O-])cccc12
8,73 to 75 °C,CC1(c2c[nH]cn2)CCCCC1
9,224 to 226 °C,Cn1c(=O)c(-c2c(Cl)cccc2Cl)cc2cnc(NCc3cccnc3)nc21
10,130 °C,CC(CN(C)C)N1c2ccccc2Sc2ccc(C(=O)NCc3ccccc3F)cc21 (racemic)
11,115 to 118 °C,CON1CCC2(CC1)C(O)=C(c1c(C)cc(C)cc1C)C(=O)N2OC1CCCCC1
12,73 to 74 °C,CC/C(=C\CCC(O)(CC)CC)c1csc(COc2ccc(CO)c(CO)c2)c1
13,269 to 271 °C,N#Cc1cc(C(=O)O)cc(O)c1O
14,135 to 136 °C,Cc1nc(-c2ccc3c(c2)CCCC3)c(CCC(=O)O)o1
15,189 to 192 °C,CC(C)(C)c1cc(-c2ccccc2)c(Oc2cccc(C#N)c2C#N)c(-c2ccccc2)c1
